Reference: patent US9493795B2 (Algenol Biofuels Inc., priority 2013, dated 2016)
Where two headings read alike, the source gives them in different places.

Columns and labels:
[1] = test system: alcohol dehydrogenase from Synechococcus sp., wild type, SEQ ID NO: 5; experiment: Km determination of native Adh in cell extract (forward and back reaction), Synechococcus sp. SEQ ID NO: 5; type: biochemical; settings: pH 7.5, 30° C.
Experimental: (§1) Km values of ADH enzymes were determined herein by varying concentrations of one substrate only while keeping all other substrates at saturated levels. The kinetic parameters of the ADH enzymes were determined herein on cellular extracts, and not on pure enzyme. Km was determined herein using a nonlinear regression algorithm for the single-substrate version of the Michaelis-Menten model by using GraphPad Prism Software (version 5). The detailed description of the algorithm is available on the world wide web at “graphpad.com/guides/prism/6/curve-fitting/index.htm?reg_kcat.htm”.
(§2) As used herein, the Km value was measured according to the method described in Example 4. […] For the forward reaction measurement, 0.15 mM NADPH was added, and acetaldehyde was added in differing amounts ranging from […] to 50 mM. The NADPH oxidation was measured at a wavelength of 340 nm.
(§3) In the above aspects, the Km-values represent the Km-values of the native, i.e. non-recombinant, form of the alcohol dehydrogenase enzyme. A Km-value as used herein can be determined from the endogenously expressed alcohol dehydrogenase enzyme of a wild-type cyanobacterial cell. […]
(§4) The reaction was started by addition of varying amounts of acetaldehyde in final concentrations between 1 μM and 50 mM. The NADPH oxidation was spectrophotometrically monitored at a wavelength of 340 nm on a Shimadzu UV2450 spectrophotometer. […]

[2] = test system: alcohol dehydrogenase from Cyanothece sp., wild type, SEQ ID NO: 3; experiment: Km determination of native Adh in cell extract (forward and back reaction), Cyanothece sp.; type: biochemical; settings: pH 7.5, 30° C.
[3] = test system: alcohol dehydrogenase from Chroococcidiopsis sp., wild type, SEQ ID NO: 9; experiment: Km determination of native Adh in cell extract (forward and back reaction), Chroococcidiopsis sp. SEQ ID NO: 9; type: biochemical; settings: 0.15 mM NADPH, pH 7.5, 30° C., read-out: Km(MeCHO)
Experimental: as §1, §2, §3, §4

[4] = test system: alcohol dehydrogenase from Arthronema africanum, wild type, SEQ ID NO: 8; experiment: Km determination of native Adh in cell extract (forward and back reaction), Arthronema africanum; type: biochemical; settings: 0.15 mM NADPH, pH 7.5, 30° C., read-out: Km(MeCHO)
Adh from LPP = experiment: Km determination in the screening, Adh from LPP; type: biochemical; settings: identified in the screening
Experimental: as §1, §2, §3, §4

[5] = test system: alcohol dehydrogenase from Synechococcus sp., wild type, SEQ ID NO: 4; experiment: Km determination of native Adh in cell extract (forward and back reaction), Synechococcus sp. SEQ ID NO: 4; type: biochemical; settings: pH 7.5, 30° C.
Experimental: as §1, §2, §3, §4

[6] = test system: alcohol dehydrogenase from Synechococcus sp., wild type, SEQ ID NO: 6; experiment: Km determination of native Adh in cell extract (forward and back reaction), Synechococcus sp. SEQ ID NO: 6; type: biochemical; settings: pH 7.5, 30° C.
Experimental: as §1, §2, §3, §4

[7] = test system: alcohol dehydrogenase from Lyngbya sp., wild type, SEQ ID NO: 1; experiment: Km determination of native Adh in cell extract (forward and back reaction), Lyngbya sp.; type: biochemical; settings: pH 7.5, 30° C.
[8] = test system: alcohol dehydrogenase AdhA from Moorella sp. HUC22-1; settings: Inokuma et al., Arch Microbiol 188 (2007) 37-45, cited from earlier work
[9] = 0.15 mM NADPH, read-out: Km(MeCHO)
[10] = back reaction, 0.15 mM NADP+, read-out: Km(EtOH)

Work on `CC=O` [acetaldehyde] yielded a Km [1, 9] of 783 µM, a Km [2, 9] of 75.6 µM and a Km [3] of 3730 µM. For the same molecule, the Km [4] was 3340 µM, the Km (Adh from LPP; read-out: Km for acetaldehyde) was 120 µM and the Km [5, 9] was 731 µM. It also gave a Km [6, 9] of 1130 µM, a Km ([7]; 0.15 mM NADPH, cell extract, Example 13, read-out: Km value for acetaldehyde) of 6 µM and a Km ([7]; 0.15 mM NADPH, cell extract, read-out: Km(MeCHO)) of 5.8 µM. For the same molecule, the Km ([8]; read-out: Km for acetaldehyde) was 10000 µM.

With `CCO` [ethanol] the Km [1, 10] was 67000 µM, the Km [2, 10] was 9330 µM and the Km (Adh from LPP; read-out: Km for ethanol) was 3600 µM. The Km [5, 10] was 32400 µM, the Km [6, 10] was 29300 µM and the Km ([7]; back reaction, 0.15 mM NADP+, cell extract, read-out: Km(EtOH)) was 830 µM. For the same molecule, the Km ([8]; read-out: Km for ethanol) was 40000 µM.

Work on `CCC=O` [propanal] yielded a Km ([7]; as Example 4: 0.15 mM NADPH, FIG. 15A, read-out: Km for propanal) of 5.3 µM.
